# Assays:
# [1] = Stability and integrity of 1-DNJ-HCl in buffer solutions at 60° C. by NP-HPLC (UV and CAD) and discoloration; assay type: physicochemical; settings: 1-DNJ/buffer formulations with a pH in the range of about 6.0-7.5
# Method: 1-DNJ-HCl was dissolved in sodium phosphate buffer. 1-DNJ-HCl concentration was 60 mg/mL; sodium phosphate buffer concentration was 100 mM at pH 4.89. The formulation was stored at 60° C. for 4 days. 1-DNJ-HCl solution in water was used as a control. Reaction rate for small molecules such as 1-DNJ-HCl generally follows Arrhenius equation where reaction rate nearly doubles for every 10° C. increase in the temperature. Thus, under this model, the reaction rate at 60° C. would be 2^5 or 32 times the reaction rate at 10° C. Therefore during 4 days at 60° C. 1-DNJ-HCl would degrade by approximately the same percentage as during 128 days (4*32) at 10° C. The stability of 1-DNJ-HCl was measured by normal phase high performance liquid chromatography (NP-HPLC). 1-DNJ-HCl was recorded by UV chromatograms and by Charged Aerosol Detector (CAD) chromatograms. Mobile phase consisted of ACN/30 mM Ammonium Acetate (90/10, v/v). The flow rate was 1.0 ml/min with 5 μl injection at 400° C. UV absorbance was measured at 220 nm CAD detector settings were 35.0 psi, Gain: 100 pA. 1-DNJ-HCl was dissolved in sodium acetate buffer. The 1-DNJ-HCl concentration was 60 mg/mL; sodium acetate buffer concentration was 50 mM at pH 5.5. The formulation was stored at 60° C. for 4 days. 1-DNJ-HCl solution in water was used as control. Reaction rate for small molecules such as 1-DNJ-HCl generally follows the Arrhenius equation, in which the reaction rate nearly doubles for every 10°K increase in the temperature. Thus the reaction rate, under this model, at 60° C. would be 2^5 or 32 times the reaction rate at 10° C. Therefore during 4 days at 60° C. 1-DNJ-HCl would degrade by approximately same percentage as during 128 days at 10° C. The stability of 1-DNJ-HCl was measured by NP-HPLC. Presence of 1-DNJ-HCl was recorded by UV absorbance detector and by Charged Aerosol Detector. Mobile phase consisted of ACN/30 mM Ammonium Acetate (90/10, v/v). The flow rate was 1.0 ml/min with 5 μl injection at 400 C. UV absorbance was measured at 220 nm. CAD detector settings were 35.0 psi, Gain: 100 pA. 1-DNJ-HCl was dissolved in sodium citrate buffer that further includes EDTA. 1-DNJ-HCl concentration was 60 mg/mL; sodium citrate buffer concentration was 50 mM at pH 4.6. The EDTA concentration was 0.05% w/v. Some samples were stored under the nitrogen atmosphere (essentially 100% nitrogen) while others were stored under air. The formulation was stored at 60° C. for 8 days. Stability of 1-DNJ-HCl was measured by NP-HPLC. Presence of 1-DNJ-HCl was recorded by UV absorbance detector and by Charged Aerosol Detector. Mobile phase consisted of ACN/30 mM Ammonium Acetate (90/10, v/v). The flow rate was 1.0 ml/min with 5 μl injection at 400 C. UV absorbance was measured at 220 nm. CAD detector settings were 35.0 psi, Gain: 100 pA. 1-DNJ-HCl was dissolved in sodium citrate buffer. 1-DNJ-HCl concentration was 60 mg/mL; sodium citrate buffer concentration was 50 mM at pH 4.7. The formulation was stored at 60° C. for 8 days. 1-DNJ-HCl solution in water was used as control. Stability of 1-DNJ-HCl was measured by NP-HPLC. Presence of 1-DNJ-HCl was recorded by UV absorbance detector and by Charged Aerosol Detector. Mobile phase consisted of ACN/30 mM Ammonium Acetate (90/10, v/v). The flow rate was 1.0 ml/min with 5 μl injection at 400 C. UV absorbance was measured at 220 nm. CAD detector settings were 35.0 psi, Gain: 100 pA. 1-DNJ-HCl was dissolved in sodium citrate buffer. 1-DNJ-HCl concentration was 60 mg/mL; sodium citrate buffer concentration was 50 mM at pH 5.0. The formulation was stored at 60° C. for 17 days. The samples were stored under the nitrogen atmosphere (essentially 100% nitrogen). 1-DNJ-HCl solution in water was used as control. Reaction rate for small molecules such as 1-DNJ-HCl generally follows Arrhenius equation where reaction rate nearly doubles for every 10°K increase in the temperature. Thus reaction rate at 60° C. would be 2^5 or 32 times the reaction rate at 10° C. Therefore during 17 days at 60° C. […]
# [2] = system: cynomolgus monkey whole blood; experiment: Hemolytic potential in cynomolgus monkey whole blood; assay type: cell-based; settings: 37 ° C. 30 minutes
# Method: (§1) 1-DNJ-HCl was dissolved in sodium citrate buffer. 1-DNJ-HCl concentration was 30 mg/mL (resulting free 1-DNJ concentration was 25 mg/mL); sodium citrate buffer concentration was 50 mM at pH 5.0. 1-DNJ-HCl formulation was added to whole blood samples of male human, rat, and cynomolgus monkey. […]. Buffer served as a negative control, while Triton-X 100 (Lysing agent) served as a positive control. Additionally blood sample without any additions was used as a negative control. The samples were stored at 4° C. Blood samples were incubated at 37 ° C. for 30 minutes with the 1-DNJ-HCl formulation, after which the samples were centrifuged. The amount of hemoglobin in the supernatant from each centrifuged sample was measured using a commercially available hemoglobin assay kit (BioAssay Systems, QuantiChrom™ Hemoglobin Assay Kit) and the Tecan microplate reader.
# rat whole blood = experiment: Hemolytic potential in rat whole blood; assay type: cell-based, Sprague Dawley rat; settings: 37 ° C. 30 minutes
# Method: as §1
# human whole blood = experiment: Hemolytic potential in human whole blood; assay type: cell-based; settings: 37 ° C. 30 minutes
# Method: as §1
# [3] = 500 μL blood mixed with 500 μL sample (30 mg/mL AT2220 or 0.1% Triton X-100)
# [4] = 500 μL blood mixed with 500 μL sample, 30 mg/mL AT2220 dilution 1, 0.1% Triton X-100 dilution 100
# [5] = supernatant, 500 μL blood mixed with 500 μL sample (30 mg/mL AT2220 or 0.1% Triton X-100)
Discoloration [1],Molecule,"% RBC lysis [2, 3] [%]","Avg OD (n = 4) [2, 4]","Hemoglobin [2, 5] [mg/dL]",% RBC lysis (rat whole blood; [3]) [%],Avg OD (n = 4) (rat whole blood; [4]),Hemoglobin (rat whole blood; [5]) [mg/dL],% RBC lysis (human whole blood; [3]) [%],Avg OD (n = 4) (human whole blood; [4]),Hemoglobin (human whole blood; [5]) [mg/dL]
discoloration may occur,"OC[C@H]1NC[C@H](O)[C@@H](O)[C@@H]1O [1-DNJ, 1-deoxynojirimycin]",,,,,,,,,
,Triton X-100,100.0,0.2000,4984,100.0,0.2567,6398,100.0,0.2768,6899

# — patent US9827189B2, “Stable parenteral DNJ compositions” (AMICUS THERAPEUTICS, INC., priority 2013, dated 2017)
